Assay results taken from patent US9918934B2, “Linker-based lecithin microemulsion delivery vehicles” (priority 2006, dated 2018).

What was measured:
[1] = tested on: reconstructed human skin EpiDerm™ EPI-200; type: in vitro ADME
Description: Lidocaine permeability was measured in vitro through reconstructed human skin EpiDerm™ EPI-200 and dorsal pig ear skin using selected formulations of examples 1 through 3. The model skin was placed in a commercial MATTEK™ Permeation Device (MPD). A test formulation (0.4 mL) was applied in the donor compartment. The receptor compartment was filled with 5 mL of PBS (0.01M phosphate, 0.137M NaCl, pH 7.4). At predetermined time, the receiver solution was withdrawn completely from the receptor compartment and was immediately replaced by fresh buffer solution. Sink conditions were maintained at all times. At 5.5 h, the experiment was terminated. All permeation experiments were conducted in triplicate at room temperature.
Lidocaine in receiver solutions was assayed by a UV spectrophotometer ([…] PLUS™, Amersham Pharmacia Biotech, U.S.A.). Receiver solutions were diluted with methanol and the absorbance at 230 nm were measured. A linear calibration curve for lidocaine was obtained at 230 nm in a range of 0-100 μg/mL with a linearity of 0.999.
The cumulative lidocaine amount permeated across the skin was plotted as a function of time (h), and average steady-state flux (J, μg/h/cm2) was calculated by dividing the slope from the linear part of the curve by the area of the exposed skin surface (0.256 cm2). […]

[2] = tested on: dorsal pig ear skin; type: in vitro ADME
Description: The model skin was placed in a commercial MATTEK™ Permeation Device (MPD). A test formulation (0.4 mL) was applied in the donor compartment. […] At predetermined time, the receiver solution was withdrawn completely from the receptor compartment and was immediately replaced by fresh buffer solution. Sink conditions were maintained at all times. At 5.5 h, the experiment was terminated. All permeation experiments were conducted in triplicate at room temperature.
Receiver solutions were diluted with methanol and the absorbance at 230 nm were measured.
The cumulative lidocaine amount permeated across the skin was plotted as a function of time (h), and average steady-state flux (J, μg/h/cm2) was calculated by dividing the slope from the linear part of the curve by the area of the exposed skin surface (0.256 cm2).
To measure the concentration of lidocaine in pig ear skin, the tissue was removed from the MATTEK™ permeation device, rinse with PBS solution and blotted with lint-free paper tissue to remove any excess of fluid. The tissue was immersed in 2 mL of methanol for a period of 24 hr. After that time, the concentration of lidocaine was measured using the HPLC method described above. The mass of lidocaine extracted is divided by the volume of the tissue (tissue thickness*cross sectional area) to obtain the equivalent lidocaine concentration in the skin. The skin permeability is calculated by dividing the transdermal flux by the lidocaine skin concentration.
The formulation LO-32 (a Type II lecithin linker microemulsion) was reformulated using lower lecithin concentration. The transdermal flux through pig ear dorsal skin was also evaluated for selected formulations, and following the procedures described above. […] (Where: (a) is lecithin; (b) is sorbitan monooleate; (c) is octanoic acid; (d) is sodium octanoate; (e) is water; (f) is lidocaine; (g) is isopropyl myristate; and (v) is microemulsion volume. Concentrations are expressed on a weight percentage basis (w/w).)

Substance | MatTek Flux (lidocaine steady-state transdermal flux) [1] | Flux (lidocaine transdermal flux through excised pig ear skin) [2] | Pig ear skin Flux (lidocaine steady-state transdermal flux) [2] | Pig ear skin Lidocaine in skin [2] [µg/mL] | Pig skin permeability [2]
Water | 320 +/− 20 μg/hr-cm^2 | 70 +/− 10 μg/cm^2 | 110 +/− 10 μg/hr-cm^2 | 6800 ± 400 | 160 +/− 20 μm/hr
Pentanol | 160 +/− 10 μg/hr-cm^2 |  | 130 +/− 20 μg/hr-cm^2 | 5800 ± 200 | 220 +/− 20 μm/hr
